Assay results reported in US9738634B2, “Heterocyclic amide compound and herbicide” (SYNGENTA PARTICIPATIONS AG, priority 2013, dated 2017).

Tests used:
Format in all cases: in vivo
Conditions in all cases: treatment dosage 320 g/ha
[1] = system: wheat; test: Test Example 4: foliar treatment, effect on crop; e: wheat
Method in brief: (§1)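 Seeds are spot-sown into sterilized diluvial soil and covered with about 1.5 cm of soil. After 14 days' greenhouse growth at 25 to 30° C, plants are sprayed on stems and leaves with diluted emulsion at the stated g/ha rate, then scored at 3 weeks.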

[2] = system: wheat; test: Test Example 3: soil treatment, effect on crop; e: wheat
Method in brief: (§2)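 Crop and weed responses were judged three weeks after a uniform surface spray of the water-diluted emulsion at the given g/ha rate. Seeds sat beneath about 1.5 cm of sterilized diluvial soil, and boxes stood in a greenhouse at 25 to 30° C.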

[3] = system: soybean; test: Test Example 3: soil treatment, effect on crop; d: soybean
Method in brief: as §2

[4] = system: oval-leafed pondweed; test: Test Example 1: weedkilling efficacy, preemergent weed treatment in the submerged state; C: oval-leafed pondweed
Method in brief: (§3)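 Visual scores against set criteria were taken 3 weeks after treatment. Compounds, as diluted emulsions at specified g/ha, went onto the water surface of 4 cm-flooded alluvial soil pots on the day weeds were sown and 2.5-leaf rice was transplanted; greenhouse held 25–30 °C.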

[5] = system: crabgrass; test: Test Example 4: weedkilling efficacy by foliar treatment; D: crabgrass
Method in brief: as §1

[6] = system: chickweed; test: Test Example 3: weedkilling efficacy through soil treatment; N: chickweed
Method in brief: as §2

[7] = system: fig-leafed goosefoot; test: Test Example 3: weedkilling efficacy through soil treatment; M: fig-leafed goosefoot
Method in brief: as §2

[8] = system: green foxtail; test: Test Example 3: weedkilling efficacy through soil treatment; E: green foxtail
Method in brief: as §2

[9] = system: rapeseed; test: Test Example 4: foliar treatment, effect on crop; g: rapeseed
Method in brief: as §1

[10] = system: wild oat; test: Test Example 3: weedkilling efficacy through soil treatment; G: wild oat
Method in brief: as §2

[11] = system: directly sown rice; test: Test Example 4: foliar treatment, effect on crop; b: directly sown rice
Method in brief: as §1

[12] = system: birds-eye speedwell; test: Test Example 3: weedkilling efficacy through soil treatment; p: birds-eye speedwell
Method in brief: as §2

[13] = system: chickweed; test: Test Example 4: weedkilling efficacy by foliar treatment; N: chickweed
Method in brief: as §1

[14] = system: redroot pigweed; test: Test Example 3: weedkilling efficacy through soil treatment; L: redroot pigweed
Method in brief: as §2

[15] = system: Italian ryegrass; test: Test Example 4: weedkilling efficacy by foliar treatment; I: Italian ryegrass
Method in brief: as §1

[16] = system: directly sown rice; test: Test Example 3: soil treatment, effect on crop; b: directly sown rice
Method in brief: as §2

[17] = system: barnyard grass; test: Test Example 3: weedkilling efficacy through soil treatment; F: barnyard grass
Method in brief: as §2

[18] = system: common wind-grass; test: Test Example 4: weedkilling efficacy by foliar treatment; J: common wind-grass
Method in brief: as §1

[19] = system: catchweed; test: Test Example 3: weedkilling efficacy through soil treatment; O: catchweed
Method in brief: as §2

[20] = system: green foxtail; test: Test Example 4: weedkilling efficacy by foliar treatment; E: green foxtail
Method in brief: as §1

[21] = system: black-grass; test: Test Example 3: weedkilling efficacy through soil treatment; H: black-grass
Method in brief: as §2

[22] = system: Indian mallow; test: Test Example 3: weedkilling efficacy through soil treatment; K: Indian mallow
Method in brief: as §2

[23] = system: wild oat; test: Test Example 4: weedkilling efficacy by foliar treatment; G: wild oat
Method in brief: as §1

[24] = system: barnyard grass; test: Test Example 1: weedkilling efficacy, preemergent weed treatment in the submerged state; A: barnyard grass
Method in brief: as §3

[25] = system: beet; test: Test Example 4: foliar treatment, effect on crop; f: beet
Method in brief: as §1

[26] = system: Italian ryegrass; test: Test Example 3: weedkilling efficacy through soil treatment; I: Italian ryegrass
Method in brief: as §2

[27] = system: bulrush; test: Test Example 1: weedkilling efficacy, preemergent weed treatment in the submerged state; B: bulrush
Method in brief: as §3

[28] = system: oval-leafed pondweed; test: Test Example 2: weedkilling efficacy, growth period weed treatment in the submerged state; C: oval-leafed pondweed
Method in brief: (§4)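 Barnyard grass, bulrush and oval-leafed pondweed sown in alluvial soil under 4 cm flooding, greenhouse 25 to 30° C. At 1-2 leaf stage, water-diluted emulsion applied to the water surface at stated g/ha dosages; effects scored 3 weeks later.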

[29] = system: rapeseed; test: Test Example 3: soil treatment, effect on crop; g: rapeseed
Method in brief: as §2

[30] = system: corn; test: Test Example 4: foliar treatment, effect on crop; c: corn
Method in brief: as §1

[31] = system: beet; test: Test Example 3: soil treatment, effect on crop; f: beet
Method in brief: as §2

[32] = system: corn; test: Test Example 3: soil treatment, effect on crop; c: corn
Method in brief: as §2

[33] = system: crabgrass; test: Test Example 3: weedkilling efficacy through soil treatment; D: crabgrass
Method in brief: as §2

[34] = system: common wind-grass; test: Test Example 3: weedkilling efficacy through soil treatment; J: common wind-grass
Method in brief: as §2

[35] = system: Indian mallow; test: Test Example 4: weedkilling efficacy by foliar treatment; K: Indian mallow
Method in brief: as §1

[36] = system: soybean; test: Test Example 4: foliar treatment, effect on crop; d: soybean
Method in brief: as §1

[37] = system: redroot pigweed; test: Test Example 4: weedkilling efficacy by foliar treatment; L: redroot pigweed
Method in brief: as §1

[38] = system: barnyard grass; test: Test Example 4: weedkilling efficacy by foliar treatment; F: barnyard grass
Method in brief: as §1

[39] = system: transplanted rice; test: Test Example 1: preemergent weed treatment in the submerged state, effect on crop; a: transplanted rice
Method in brief: as §3

[40] = system: bulrush; test: Test Example 2: weedkilling efficacy, growth period weed treatment in the submerged state; B: bulrush
Method in brief: as §4

[41] = system: black-grass; test: Test Example 4: weedkilling efficacy by foliar treatment; H: black-grass
Method in brief: as §1

[42] = system: fig-leafed goosefoot; test: Test Example 4: weedkilling efficacy by foliar treatment; M: fig-leafed goosefoot
Method in brief: as §1

[43] = system: barnyard grass; test: Test Example 2: weedkilling efficacy, growth period weed treatment in the submerged state; A: barnyard grass
Method in brief: as §4

[44] = system: catchweed; test: Test Example 4: weedkilling efficacy by foliar treatment; O: catchweed
Method in brief: as §1

SMILES: CC1=C(c2ccccc2)C(=O)N(C(C)(C)C(=O)Nc2ncccc2F)CO1 [B-2-24]
- e (wheat) effect on crop grade [1]: 0 (weed kill ratio 5% or less (practically no effect))
- e (wheat) effect on crop grade [2]: 0 (weed kill ratio 5% or less (practically no effect))
- d (soybean) effect on crop grade [3]: 0 (weed kill ratio 5% or less (practically no effect))
- C (oval-leafed pondweed) weedkilling efficacy grade [4]: 3 (weed kill ratio 40% or more, less than 70%)
- D (crabgrass) weedkilling efficacy grade [5]: 0 (weed kill ratio 5% or less (practically no effect))
- N (chickweed) weedkilling efficacy grade [6]: 3 (weed kill ratio 40% or more, less than 70%)
- M (fig-leafed goosefoot) weedkilling efficacy grade [7]: 0 (weed kill ratio 5% or less (practically no effect))
- E (green foxtail) weedkilling efficacy grade [8]: 3 (weed kill ratio 40% or more, less than 70%)
- g (rapeseed) effect on crop grade [9]: 0 (weed kill ratio 5% or less (practically no effect))
- G (wild oat) weedkilling efficacy grade [10]: 0 (weed kill ratio 5% or less (practically no effect))
- b (directly sown rice) effect on crop grade [11]: 0 (weed kill ratio 5% or less (practically no effect))
- P (birds-eye speedwell) weedkilling efficacy grade [12]: 0 (weed kill ratio 5% or less (practically no effect))
- N (chickweed) weedkilling efficacy grade [13]: 2 (weed kill ratio 20% or more, less than 40%)
- L (redroot pigweed) weedkilling efficacy grade [14]: 0 (weed kill ratio 5% or less (practically no effect))
- I (Italian ryegrass) weedkilling efficacy grade [15]: 0 (weed kill ratio 5% or less (practically no effect))
- b (directly sown rice) effect on crop grade [16]: 0 (weed kill ratio 5% or less (practically no effect))
- F (barnyard grass) weedkilling efficacy grade [17]: 3 (weed kill ratio 40% or more, less than 70%)
- J (common wind-grass) weedkilling efficacy grade [18]: 1 (weed kill ratio 5% or more, less than 20%)
- O (catchweed) weedkilling efficacy grade [19]: 0 (weed kill ratio 5% or less (practically no effect))
- E (green foxtail) weedkilling efficacy grade [20]: 1 (weed kill ratio 5% or more, less than 20%)
- H (black-grass) weedkilling efficacy grade [21]: 0 (weed kill ratio 5% or less (practically no effect))
- K (Indian mallow) weedkilling efficacy grade [22]: 0 (weed kill ratio 5% or less (practically no effect))
- G (wild oat) weedkilling efficacy grade [23]: 0 (weed kill ratio 5% or less (practically no effect))
- A (barnyard grass) weedkilling efficacy grade [24]: 2 (weed kill ratio 20% or more, less than 40%)
- f (beet) effect on crop grade [25]: 0 (weed kill ratio 5% or less (practically no effect))
- I (Italian ryegrass) weedkilling efficacy grade [26]: 0 (weed kill ratio 5% or less (practically no effect))
- B (bulrush) weedkilling efficacy grade [27]: 5 (weed kill ratio 90% or more, (practically complete withering))
- C (oval-leafed pondweed) weedkilling efficacy grade [28]: 3 (weed kill ratio 40% or more, less than 70%)
- g (rapeseed) effect on crop grade [29]: 0 (weed kill ratio 5% or less (practically no effect))
- c (corn) effect on crop grade [30]: 0 (weed kill ratio 5% or less (practically no effect))
- f (beet) effect on crop grade [31]: 0 (weed kill ratio 5% or less (practically no effect))
- c (corn) effect on crop grade [32]: 0 (weed kill ratio 5% or less (practically no effect))
- D (crabgrass) weedkilling efficacy grade [33]: 3 (weed kill ratio 40% or more, less than 70%)
- J (common wind-grass) weedkilling efficacy grade [34]: 3 (weed kill ratio 40% or more, less than 70%)
- K (Indian mallow) weedkilling efficacy grade [35]: 0 (weed kill ratio 5% or less (practically no effect))
- d (soybean) effect on crop grade [36]: 0 (weed kill ratio 5% or less (practically no effect))
- L (redroot pigweed) weedkilling efficacy grade [37]: 0 (weed kill ratio 5% or less (practically no effect))
- F (barnyard grass) weedkilling efficacy grade [38]: 0 (weed kill ratio 5% or less (practically no effect))
- a (transplanted rice) effect on crop grade [39]: 0 (weed kill ratio 5% or less (practically no effect))
- B (bulrush) weedkilling efficacy grade [40]: 4 (weed kill ratio 70% or more, less than 90%)
- H (black-grass) weedkilling efficacy grade [41]: 0 (weed kill ratio 5% or less (practically no effect))
- M (fig-leafed goosefoot) weedkilling efficacy grade [42]: 4 (weed kill ratio 70% or more, less than 90%)
- A (barnyard grass) weedkilling efficacy grade [43]: 1 (weed kill ratio 5% or more, less than 20%)
- O (catchweed) weedkilling efficacy grade [44]: 3 (weed kill ratio 40% or more, less than 70%)
